Source: ChEMBL document CHEMBL5465560, “Selectivity Literature for EUbOPEN Chemogenomic Library” (2024)
Values belong to the compound of their own block, whether it stands above or below them.

Legend:
[1] = target: T1, Megakaryocyte-associated tyrosine-protein kinase (Homo sapiens) (UniProt P42679); conditions: at 10 µM
T1 sequence (whole entry): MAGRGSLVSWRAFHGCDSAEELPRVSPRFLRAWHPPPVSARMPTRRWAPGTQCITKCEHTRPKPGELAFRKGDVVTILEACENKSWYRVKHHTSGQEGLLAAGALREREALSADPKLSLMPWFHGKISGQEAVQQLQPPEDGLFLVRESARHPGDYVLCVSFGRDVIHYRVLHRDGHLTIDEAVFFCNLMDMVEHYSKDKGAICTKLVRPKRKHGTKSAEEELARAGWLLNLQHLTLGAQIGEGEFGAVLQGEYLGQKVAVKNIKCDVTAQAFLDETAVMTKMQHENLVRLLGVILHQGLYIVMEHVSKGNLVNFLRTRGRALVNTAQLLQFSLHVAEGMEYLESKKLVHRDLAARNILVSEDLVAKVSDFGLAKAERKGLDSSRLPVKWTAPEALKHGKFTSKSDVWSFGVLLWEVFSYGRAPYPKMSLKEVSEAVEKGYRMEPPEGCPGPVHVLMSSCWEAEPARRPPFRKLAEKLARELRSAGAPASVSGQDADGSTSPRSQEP

[2] = target: Polycystin-1 (Homo sapiens) (UniProt P98161); assay: Selectivity interaction (ActivX KiNativ screen (kinase selectivity in THP-1 cell lysates)) EUB0000639a PKD1; assay type: subcellular; conditions: lysate
[3] = target: Mitogen-activated protein kinase 9 (Homo sapiens, UniProt P45984); assay: Selectivity interaction (ActivX KiNativ screen (kinase selectivity in THP-1 cell lysates)) EUB0000639a MAPK9; assay type: subcellular; conditions: lysate, at 0.01 µM
[4] = target: Dual specificity mitogen-activated protein kinase kinase 1 (Homo sapiens, UniProt Q02750); assay: Selectivity interaction (Kinase panel (literature)) EUB0001199aCl MAP2K1; conditions: at 1 µM
[5] = target: T2, Rhodopsin kinase GRK7 (Homo sapiens) (UniProt Q8WTQ7); assay: Selectivity interaction (KinomeScan (DiscoverX)) EUB0000595a GRK7; conditions: at 10 µM
T2 sequence (whole entry): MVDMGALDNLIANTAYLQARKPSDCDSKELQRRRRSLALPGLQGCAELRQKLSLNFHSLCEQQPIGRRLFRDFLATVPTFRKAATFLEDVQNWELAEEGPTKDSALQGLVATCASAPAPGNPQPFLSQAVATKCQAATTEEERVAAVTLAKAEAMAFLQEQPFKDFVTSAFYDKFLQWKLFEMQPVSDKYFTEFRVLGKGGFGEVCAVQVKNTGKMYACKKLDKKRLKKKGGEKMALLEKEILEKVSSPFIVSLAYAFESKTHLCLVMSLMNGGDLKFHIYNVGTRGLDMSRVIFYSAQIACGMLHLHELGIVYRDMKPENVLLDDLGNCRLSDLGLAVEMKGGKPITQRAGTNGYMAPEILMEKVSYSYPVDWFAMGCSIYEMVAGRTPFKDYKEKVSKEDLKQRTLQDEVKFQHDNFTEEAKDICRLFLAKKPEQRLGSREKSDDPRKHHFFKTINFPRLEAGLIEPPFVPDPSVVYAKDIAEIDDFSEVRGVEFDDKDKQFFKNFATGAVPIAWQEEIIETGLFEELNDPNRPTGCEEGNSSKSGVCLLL

[6] = target: T3, Serine/threonine-protein kinase 17A (Homo sapiens) (UniProt Q9UEE5); assay: Selectivity interaction (KinomeScan (DiscoverX)) EUB0000092b STK17A; conditions: at 10 µM
T3 sequence (whole entry): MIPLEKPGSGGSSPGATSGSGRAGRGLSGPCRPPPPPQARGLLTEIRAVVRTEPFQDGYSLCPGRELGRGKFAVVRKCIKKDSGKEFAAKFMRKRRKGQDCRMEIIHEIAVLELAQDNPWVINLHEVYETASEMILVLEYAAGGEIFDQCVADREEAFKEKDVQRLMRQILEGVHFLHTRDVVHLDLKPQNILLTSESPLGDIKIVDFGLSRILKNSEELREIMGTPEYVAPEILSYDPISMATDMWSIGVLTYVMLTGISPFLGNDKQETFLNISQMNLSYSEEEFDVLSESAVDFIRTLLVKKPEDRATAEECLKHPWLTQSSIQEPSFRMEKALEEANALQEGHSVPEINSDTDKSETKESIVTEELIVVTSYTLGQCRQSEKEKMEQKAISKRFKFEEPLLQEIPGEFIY

[7] = target: T4, Activin receptor type-1B (Homo sapiens) (UniProt P36896); assay: Selectivity interaction (KinomeScan (DiscoverX)) EUB0000045b ACVR1B
T4 sequence (whole entry): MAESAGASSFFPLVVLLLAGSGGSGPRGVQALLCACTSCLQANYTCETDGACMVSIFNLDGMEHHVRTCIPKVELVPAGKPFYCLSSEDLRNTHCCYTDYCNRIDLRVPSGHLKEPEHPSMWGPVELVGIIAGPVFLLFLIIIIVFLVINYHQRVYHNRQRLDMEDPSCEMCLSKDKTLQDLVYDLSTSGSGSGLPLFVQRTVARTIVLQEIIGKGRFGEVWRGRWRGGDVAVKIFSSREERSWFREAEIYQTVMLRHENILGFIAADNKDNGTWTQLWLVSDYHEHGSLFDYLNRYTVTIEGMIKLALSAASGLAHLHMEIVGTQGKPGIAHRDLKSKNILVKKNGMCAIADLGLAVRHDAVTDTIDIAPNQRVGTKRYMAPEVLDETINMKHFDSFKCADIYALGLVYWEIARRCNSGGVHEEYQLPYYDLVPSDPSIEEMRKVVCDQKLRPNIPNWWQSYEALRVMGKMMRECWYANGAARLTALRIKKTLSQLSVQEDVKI

[8] = target: Tyrosine-protein kinase Blk (Homo sapiens) (UniProt P51451); assay: Selectivity interaction (KinomeScan (DiscoverX)) EUB0001619a BLK; conditions: at 1 µM
[9] = target: Activated CDC42 kinase 1 (Homo sapiens, UniProt Q07912); assay: Selectivity interaction (Kinase panel (KiNativ target engagement assay in Jurkat cells)) EUB0001635a TNK2; assay type: cell-based; conditions: Selectivity number of off-targets 0.0, Selectivity number of targets 233.0, Source Knowledge https://www.sciencedirect.com/science/article/pii/S2451945619300674?via%3Dihub, at 1 µM

Chain of Polycystin-1 (Homo sapiens) (P98161 24-4303 limits assumed): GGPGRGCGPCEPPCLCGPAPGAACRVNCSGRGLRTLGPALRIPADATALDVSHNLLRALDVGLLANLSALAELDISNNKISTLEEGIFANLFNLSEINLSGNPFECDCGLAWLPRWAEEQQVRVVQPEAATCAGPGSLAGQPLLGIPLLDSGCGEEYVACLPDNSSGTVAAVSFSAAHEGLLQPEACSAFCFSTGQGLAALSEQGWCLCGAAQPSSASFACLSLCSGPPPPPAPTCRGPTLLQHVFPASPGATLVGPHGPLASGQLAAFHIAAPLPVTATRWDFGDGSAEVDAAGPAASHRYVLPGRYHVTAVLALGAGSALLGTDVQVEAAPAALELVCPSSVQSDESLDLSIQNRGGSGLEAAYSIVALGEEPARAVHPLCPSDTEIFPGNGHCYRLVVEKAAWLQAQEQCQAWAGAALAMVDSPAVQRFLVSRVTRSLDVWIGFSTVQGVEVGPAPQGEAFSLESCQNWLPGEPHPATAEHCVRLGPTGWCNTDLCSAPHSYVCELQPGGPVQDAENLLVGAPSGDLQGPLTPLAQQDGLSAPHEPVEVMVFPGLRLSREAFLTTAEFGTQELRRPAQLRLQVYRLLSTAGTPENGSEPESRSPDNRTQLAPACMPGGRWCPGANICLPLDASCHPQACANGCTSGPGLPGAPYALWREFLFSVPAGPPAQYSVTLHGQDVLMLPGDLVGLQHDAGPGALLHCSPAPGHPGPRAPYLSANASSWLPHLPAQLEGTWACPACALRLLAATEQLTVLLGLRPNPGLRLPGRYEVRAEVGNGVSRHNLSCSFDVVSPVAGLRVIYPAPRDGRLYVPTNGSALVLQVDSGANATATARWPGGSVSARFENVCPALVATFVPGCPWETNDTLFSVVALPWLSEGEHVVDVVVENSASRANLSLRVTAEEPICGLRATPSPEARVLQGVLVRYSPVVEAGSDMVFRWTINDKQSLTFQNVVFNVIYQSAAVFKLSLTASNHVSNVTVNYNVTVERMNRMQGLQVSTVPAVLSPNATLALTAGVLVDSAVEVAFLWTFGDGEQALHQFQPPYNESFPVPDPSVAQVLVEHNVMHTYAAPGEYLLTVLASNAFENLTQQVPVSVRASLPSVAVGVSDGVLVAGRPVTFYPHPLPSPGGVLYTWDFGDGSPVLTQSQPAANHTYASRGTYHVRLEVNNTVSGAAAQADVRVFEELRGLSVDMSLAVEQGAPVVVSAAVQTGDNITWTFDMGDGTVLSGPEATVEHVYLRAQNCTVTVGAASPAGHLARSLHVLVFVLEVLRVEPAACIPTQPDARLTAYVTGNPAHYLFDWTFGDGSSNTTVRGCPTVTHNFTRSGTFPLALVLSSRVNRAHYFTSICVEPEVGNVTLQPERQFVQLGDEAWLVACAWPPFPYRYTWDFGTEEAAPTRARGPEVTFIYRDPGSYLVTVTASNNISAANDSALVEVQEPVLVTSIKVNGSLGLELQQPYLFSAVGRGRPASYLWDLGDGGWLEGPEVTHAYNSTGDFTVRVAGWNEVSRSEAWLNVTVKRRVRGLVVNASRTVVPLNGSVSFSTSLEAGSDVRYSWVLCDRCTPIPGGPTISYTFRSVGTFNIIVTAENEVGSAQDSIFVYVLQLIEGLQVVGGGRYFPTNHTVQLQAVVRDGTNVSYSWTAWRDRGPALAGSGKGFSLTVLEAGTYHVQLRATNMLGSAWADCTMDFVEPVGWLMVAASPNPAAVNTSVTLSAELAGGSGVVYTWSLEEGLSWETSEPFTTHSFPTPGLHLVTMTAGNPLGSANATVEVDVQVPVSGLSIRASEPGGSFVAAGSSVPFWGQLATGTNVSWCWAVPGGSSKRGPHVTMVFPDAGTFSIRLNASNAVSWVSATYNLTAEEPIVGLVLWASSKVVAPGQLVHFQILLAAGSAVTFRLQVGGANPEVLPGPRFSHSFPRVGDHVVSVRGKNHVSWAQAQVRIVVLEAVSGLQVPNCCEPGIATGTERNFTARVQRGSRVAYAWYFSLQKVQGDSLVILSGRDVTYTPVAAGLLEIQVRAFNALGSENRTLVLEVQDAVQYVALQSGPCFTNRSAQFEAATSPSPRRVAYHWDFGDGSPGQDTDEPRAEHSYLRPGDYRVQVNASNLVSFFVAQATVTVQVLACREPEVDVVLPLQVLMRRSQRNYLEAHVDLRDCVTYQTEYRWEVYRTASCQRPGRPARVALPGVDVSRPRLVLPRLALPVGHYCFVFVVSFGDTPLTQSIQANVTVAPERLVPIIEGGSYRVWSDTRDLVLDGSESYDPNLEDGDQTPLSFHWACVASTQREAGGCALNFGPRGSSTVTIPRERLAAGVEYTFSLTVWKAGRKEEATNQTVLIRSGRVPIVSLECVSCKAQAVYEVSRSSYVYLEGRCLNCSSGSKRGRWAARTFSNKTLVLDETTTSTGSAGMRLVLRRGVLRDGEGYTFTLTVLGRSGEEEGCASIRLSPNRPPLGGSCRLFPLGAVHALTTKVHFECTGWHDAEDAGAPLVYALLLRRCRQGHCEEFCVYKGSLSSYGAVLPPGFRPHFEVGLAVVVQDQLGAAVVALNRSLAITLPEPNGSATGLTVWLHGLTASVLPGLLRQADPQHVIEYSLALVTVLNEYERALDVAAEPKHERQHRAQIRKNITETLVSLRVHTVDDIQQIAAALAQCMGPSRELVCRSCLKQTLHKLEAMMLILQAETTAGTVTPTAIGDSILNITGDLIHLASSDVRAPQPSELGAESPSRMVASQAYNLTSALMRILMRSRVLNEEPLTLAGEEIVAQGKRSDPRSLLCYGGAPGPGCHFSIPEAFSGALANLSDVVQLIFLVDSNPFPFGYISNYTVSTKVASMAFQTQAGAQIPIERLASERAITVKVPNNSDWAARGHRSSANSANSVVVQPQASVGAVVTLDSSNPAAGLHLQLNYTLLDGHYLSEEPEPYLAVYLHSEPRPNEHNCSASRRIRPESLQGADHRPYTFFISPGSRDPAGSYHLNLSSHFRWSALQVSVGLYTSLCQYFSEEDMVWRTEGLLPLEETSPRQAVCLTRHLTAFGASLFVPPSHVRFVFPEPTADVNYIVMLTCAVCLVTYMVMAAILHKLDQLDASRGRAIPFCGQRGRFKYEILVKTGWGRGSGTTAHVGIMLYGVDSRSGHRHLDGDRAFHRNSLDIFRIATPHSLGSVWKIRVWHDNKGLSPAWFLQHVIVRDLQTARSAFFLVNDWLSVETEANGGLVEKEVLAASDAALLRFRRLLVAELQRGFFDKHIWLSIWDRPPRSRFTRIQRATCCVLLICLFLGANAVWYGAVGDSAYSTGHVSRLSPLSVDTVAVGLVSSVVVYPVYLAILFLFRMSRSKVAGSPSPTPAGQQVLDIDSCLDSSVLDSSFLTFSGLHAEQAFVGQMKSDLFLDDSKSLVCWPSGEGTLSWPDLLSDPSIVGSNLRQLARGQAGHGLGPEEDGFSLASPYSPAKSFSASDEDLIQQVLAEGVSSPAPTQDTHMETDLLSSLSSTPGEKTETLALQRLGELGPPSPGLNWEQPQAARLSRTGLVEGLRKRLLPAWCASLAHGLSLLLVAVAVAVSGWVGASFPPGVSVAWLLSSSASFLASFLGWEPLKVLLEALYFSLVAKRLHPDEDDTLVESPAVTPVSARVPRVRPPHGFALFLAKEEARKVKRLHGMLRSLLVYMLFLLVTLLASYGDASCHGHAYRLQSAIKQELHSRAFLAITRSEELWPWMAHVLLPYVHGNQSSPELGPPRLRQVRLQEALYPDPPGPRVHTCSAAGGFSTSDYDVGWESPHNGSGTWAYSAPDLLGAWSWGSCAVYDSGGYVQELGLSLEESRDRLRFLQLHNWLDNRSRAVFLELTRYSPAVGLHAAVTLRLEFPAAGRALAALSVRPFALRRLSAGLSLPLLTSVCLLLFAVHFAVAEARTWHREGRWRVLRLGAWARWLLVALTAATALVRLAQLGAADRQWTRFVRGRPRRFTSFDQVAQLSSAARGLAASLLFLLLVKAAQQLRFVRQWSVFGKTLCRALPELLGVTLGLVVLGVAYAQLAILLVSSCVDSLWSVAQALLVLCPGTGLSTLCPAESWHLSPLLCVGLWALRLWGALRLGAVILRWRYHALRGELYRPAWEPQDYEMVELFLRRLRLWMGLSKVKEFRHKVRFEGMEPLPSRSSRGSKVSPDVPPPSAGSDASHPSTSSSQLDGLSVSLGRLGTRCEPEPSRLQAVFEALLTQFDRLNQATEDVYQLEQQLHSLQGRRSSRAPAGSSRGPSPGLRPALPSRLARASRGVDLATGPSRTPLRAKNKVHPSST
Chain of Dual specificity mitogen-activated protein kinase kinase 1 (Q02750 whole entry): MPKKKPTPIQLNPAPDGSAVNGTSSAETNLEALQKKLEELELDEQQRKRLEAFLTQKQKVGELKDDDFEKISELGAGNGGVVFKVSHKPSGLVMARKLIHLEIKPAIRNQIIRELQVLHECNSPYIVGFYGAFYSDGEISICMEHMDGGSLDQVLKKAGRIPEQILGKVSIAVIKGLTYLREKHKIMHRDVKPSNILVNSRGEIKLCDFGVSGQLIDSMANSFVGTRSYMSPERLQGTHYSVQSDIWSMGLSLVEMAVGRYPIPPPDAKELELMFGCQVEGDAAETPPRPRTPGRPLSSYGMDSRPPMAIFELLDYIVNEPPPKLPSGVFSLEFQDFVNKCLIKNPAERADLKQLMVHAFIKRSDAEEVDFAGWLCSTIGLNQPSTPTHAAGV
Chain of Mitogen-activated protein kinase 9 (P45984 whole entry, looked up): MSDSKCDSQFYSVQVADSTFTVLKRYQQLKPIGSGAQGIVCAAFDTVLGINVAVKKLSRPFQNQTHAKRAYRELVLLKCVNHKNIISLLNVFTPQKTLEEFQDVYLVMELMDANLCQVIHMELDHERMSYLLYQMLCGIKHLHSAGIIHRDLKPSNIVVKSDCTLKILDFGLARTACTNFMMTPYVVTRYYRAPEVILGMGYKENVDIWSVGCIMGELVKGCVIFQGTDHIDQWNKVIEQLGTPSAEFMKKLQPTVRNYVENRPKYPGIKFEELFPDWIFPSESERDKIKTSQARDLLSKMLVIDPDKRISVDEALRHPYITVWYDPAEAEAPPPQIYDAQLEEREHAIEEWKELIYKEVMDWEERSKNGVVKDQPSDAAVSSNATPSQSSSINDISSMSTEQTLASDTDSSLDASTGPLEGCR

Compound: Cc1cc([C@@H](C)Nc2ccccc2C(=O)O)c2nc(N3CCOCC3)cc(=O)n2c1 [AZD-6482]
- % of control [1]: 96%

- % of inhibition ([2]; at 0.01 µM): -7.2%
- % of inhibition ([2]; at 0.04 µM): -3.5%
- % of inhibition ([2]; at 0.2 µM): -8.9%
- % of inhibition ([2]; at 1 µM): 8%
- % of inhibition ([2]; at 5 µM): 8.9%
- % of inhibition [3]: -10%
Compound: CC[C@@H]1[C@H](F)C(=O)N[C@@H]1COc1nccc2cc(C(N)=O)c(OC)cc12 [ZIMLOVISERTIB]

- % of inhibition [4]: -4%
Compound: CN1Cc2nccc(-c3cn(C)nc3-c3ccc(F)cc3)c2C1=O

Compound: COCC(=O)NC/C=C/c1ccc2ncnc(Nc3ccc(Oc4ccc(C)nc4)c(C)c3)c2c1 [CP-724714]
- % of control [5]: 100%

Compound: CCC(=O)N1CCN(c2ccc(-n3c(=O)ccc4cnc5ccc(-c6cnc7ccccc7c6)cc5c43)cc2C(F)(F)F)CC1
- % of control [6]: 93%

Compound: C=CC(=O)Nc1cc(-n2c(=O)ccc3cnc4ccc(-c5ccc(NS(C)(=O)=O)cc5)cc4c32)ccc1C
- % of control ([7]; at 1 µM): 84%
- % of control ([7]; at 10 µM): 100%

Compound: N#Cc1cccc(-c2c[nH]c3ncnc(N4CCOCC4)c23)c1
- % of control [8]: 72%

Compound: C=CC(=O)Nc1ccc(C(=O)Nc2[nH]nc3c2CN(C(=O)N[C@H](CN(C)C)c2ccccc2)C3(C)C)cc1
- % of engagement [9]: -3.6%
